What follows are compounds tested against T1, purified catalytic domain of recombinant human TACE (rhTACEc) (Homo sapiens, UniProt P78536, N452Q/S266A) (assay: TACE kinetic assay: cleavage of internally quenched peptide substrate SPDL-3, fluorescence). Conditions: Ki (nM), TACE, representative compounds, numeric values.
T1 construct: Residue 215 to 477 with two mutation (S266A and N452Q) and a 6×His tail; 6xHis (C); made in house; host or cells: baculovirus/Hi5 insect cells
Format: biochemical
Procedure: TACE activity is determined by a kinetic assay measuring the rate of increase in fluorescent intensity generated by TACE catalyzed cleavage of an internally quenched peptide substrate (SPDL-3). […] It is purified from the baculovirus/Hi5 cells expression system using affinity chromatography. […] MCA is (7-Methoxycoumarin-4-yl)acetyl. Dpa is N-3-(2,4-Dinitrophenyl)-L-2,3-diaminopropionyl.
A 50 μl assay mixture contains 20 mM HEPES, pH 7.3, 5 mM CaCl2, 100 μM ZnCl2, 2% DMSO, 0.04% Methylcellulose, 30 μM SPDL-3, 70 pM rhTACEc and a test compound. RhTACEc is pre-incubated with the testing compound for 90 min. at 25° C. Reaction is started by addition of the substrate. […] Rate of enzymatic reaction is shown as Units per second. Effect of a test compound is shown as % of TACE activity in the absence of the compound.

T1 sequence (P78536 215-477 S266A/N452Q): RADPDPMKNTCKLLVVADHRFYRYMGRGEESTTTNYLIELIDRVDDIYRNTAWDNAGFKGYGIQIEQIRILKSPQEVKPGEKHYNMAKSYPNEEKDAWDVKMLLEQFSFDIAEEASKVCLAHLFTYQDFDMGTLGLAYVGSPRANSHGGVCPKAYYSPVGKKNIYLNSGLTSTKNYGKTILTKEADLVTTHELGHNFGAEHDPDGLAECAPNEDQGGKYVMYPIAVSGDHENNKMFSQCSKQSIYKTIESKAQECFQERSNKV

SMILES | Ki [nM]
Cc1nc2ccccc2n1Cc1ccc(CNC(=O)[C@H](O)[C@@H](O)C(=O)N2Cc3ccccc3C2)s1 | 0.5

Same assay, conditions: TACE inhibitory activity, class symbols; read-out: Ki

Ki [nM] | SMILES
< 20 | CCNc1nnc([C@H]2c3ccccc3CN2C(=O)[C@H](O)[C@@H](O)C(=O)N[C@H](C)c2ccc(-n3cccn3)cc2)o1 (stereo in doubt) [Compound 2527]
< 20 | Cc1noc([C@H]2c3ccccc3CN2C(=O)[C@H](O)[C@@H](O)C(=O)N[C@H](C)c2ccc(-n3cccn3)cc2)n1 (stereo in doubt) [Compound 2528]
< 20 | C[C@@H](NC(=O)[C@H](O)[C@@H](O)C(=O)N1CCC[C@@H]1c1cccc(Cl)c1)c1ccc(-n2cccn2)cc1 [Compound 944]
20 to 100 | N#Cc1cc(F)ccc1N1CCC(CNC(=O)[C@H](O)[C@@H](O)C(=O)N2Cc3cccnc3C2)CC1 [Compound 2003]
< 20 | N#Cc1cc(F)ccc1N1CCC(CNC(=O)[C@H](O)[C@@H](O)C(=O)N2Cc3ccncc3C2)CC1 [Compound 2007]
20 to 100 | C[C@@H](NC(=O)[C@H](O)[C@@H](O)C(=O)N1Cc2ccc[n+]([O-])c2C1)c1ccc(-n2cccn2)cc1 [Compound 2030]
< 20 | C[C@@H](NC(=O)[C@](C)(O)[C@@H](O)C(=O)N1Cc2cccnc2C1)c1ccc(-n2cccn2)cc1 [Compound 2031]
< 20 | C[C@@H](NC(=O)[C@H](O)[C@@H](O)C(=O)N1Cc2cccnc2C1)c1ccc(-n2cccn2)cc1 [Compound 2032]
< 20 | CCOc1cc(F)ccc1-c1ccc(CNC(=O)[C@](C)(O)[C@@H](O)C(=O)N2Cc3cccnc3C2)cc1 [Compound 2033]
20 to 100 | C[C@](O)(C(=O)NCC1CCN(c2ccc(F)cc2C#N)CC1)[C@@H](O)C(=O)N1Cc2cccnc2C1 [Compound 2034]
< 20 | O=C(NCC1CCN(c2ccccc2OC(F)(F)F)CC1)[C@H](O)[C@@H](O)C(=O)N1Cc2cccnc2C1 [Compound 2035]
< 20 | CCOc1cc(F)ccc1-c1ccc(CNC(=O)[C@H](O)[C@@H](O)C(=O)N2Cc3cccnc3C2)cc1 [Compound 2036]
20 to 100 | O=C(NCc1ccc(-c2ccccc2)cc1)[C@H](O)[C@@H](O)C(=O)N1Cc2cccnc2C1 [Compound 2037]

Same assay, conditions: TACE, representative compounds, numeric values; read-out: Ki

Ki [nM] | SMILES
0.16 | CCNc1nc(C2c3ccccc3CN2C(=O)[C@H](O)[C@@H](O)C(=O)N[C@H](C)c2ccc(-n3cccn3)cc2)cs1 (stereo partly drawn)
0.3 | CCNc1nc(C2c3ccccc3CCN2C(=O)[C@H](O)[C@@H](O)C(=O)N[C@H](C)c2ccc(-n3cccn3)cc2)cs1 (stereo partly drawn)
0.5 | CNc1nc([C@H]2c3ccccc3CN2C(=O)[C@H](O)[C@@H](O)C(=O)N[C@H](C)c2ccc(-n3cccn3)cc2)cs1
0.56 | CCNc1nnc(C2c3ccccc3CN2C(=O)[C@H](O)[C@@H](O)C(=O)N[C@H](C)c2ccc(-n3cccn3)cc2)o1 (stereo partly drawn)
0.6 | C[C@@H](NC(=O)[C@H](O)[C@@H](O)C(=O)N1CC=CC1c1cccc(Cl)c1)c1ccc(-n2cccn2)cc1 (stereo partly drawn)
0.74 | C[C@@H](NC(=O)[C@H](O)[C@@H](O)C(=O)N1Cc2ccncc2C1)C1CCN(c2ccccc2OC(F)(F)F)CC1
1 | Cc1nc2ccccc2n1Cc1csc(CNC(=O)[C@H](O)[C@@H](O)C(=O)N2CCCC2c2cccc(N(C)C)c2)n1 (stereo partly drawn)
1.4 | Cc1cccc(C)c1Cc1csc(CNC(=O)[C@H](O)[C@@H](O)C(=O)N2CCCC2c2cccc(CN3CCCC3)c2)n1 (stereo partly drawn)
2.5 | Cc1cccc(C)c1Cc1csc(CNC(=O)[C@H](O)[C@@H](O)C(=O)N2CCCC2c2cccc(N3CCN(C)CC3)c2)n1 (stereo partly drawn)
2.7 | O=C(NCc1ccn(Cc2ccccc2Cl)n1)[C@H](O)[C@@H](O)C(=O)N1CCC[C@@H]1c1cccc(Cl)c1
2.9 | CC#CCOc1cc([C@@H](C)NC(=O)[C@H](O)[C@@H](O)C(=O)N2CCC[C@@H]2c2csc(NC(C)C)n2)ccc1-n1cccn1
3.6 | CCOC(=O)c1ccccc1-c1ccc(CNC(=O)[C@H](O)[C@@H](O)C(=O)N2CCC[C@@H]2c2ccccc2)cc1
3.8 | C[C@@H](NC(=O)[C@H](O)[C@@H](O)C(=O)N1Cc2ccccc2C1)c1ccc(-c2ccsc2)cc1

— patent US7652020B2, “Compounds for the treatment of inflammatory disorders” (Schering Corporation, priority 2004, dated 2010)
